Test [1] has as its system Monocots. The experiment in a line: Preemergence weed control in flats (Example 14, Table II), monocot weeds. The format is in vivo. To be noted: about 2 weeks after application. The protocol: (§1) Using the procedure described below, the benzophenones of Examples 1 and 2 were evaluated for control of the following weeds:
Barnyardgrass (Echinochloa crusgalli)
Crabgrass (Digitaria spp.)
Foxtail (Setaria italica)
Johnsongrass (Sorghum halepense)
Quackgrass (Agropyron repens)
Yellow millet (Panicum miliaceaum)
Wild oats (Sesbania spp.)
(§2) The following test procedure is employed. Seeds of selected weeds are planted in soil in flats, and the flats are treated with the test compound immediately after the planting. The compound to be evaluated is dissolved in acetone, diluted with water, and sprayed over the flats using a carrier volume equivalent to 50 gallons per acre at the rate of application (pounds per acre, lb/A.) specified in the tables. About 2 weeks after the application of the test compound, the state of growth of the plants is observed and the phytotoxic effect of the compound is evaluated. Table II gives the average percent control achieved by the test compounds in terms of the percent of the plants which are killed by the compounds.

In test [2] the test system is Dicots. Kind of test: Preemergence weed control in flats (Example 14, Table II), dicot weeds. The test is classed as in vivo. To be noted: about 2 weeks after application. The procedure:
as §1
Coffeeweed (Sesbania spp.)
velvetleaf (Abutilon theophrasti)
as §2

For `COc1ccc(C(=O)c2cccc(C(F)(F)F)c2)cc1C` [Example 1, 4-methoxy-3-methyl-3'-trifluoromethylbenzophenone], the “% Control, Monocots (average percent of the plants killed)” value was 91% in test [1] (2 lb./A.), 97% in test [1] (4 lb./A.) and 99% in test [1] (8 lb./A.). Besides, the “% Control, Dicots (average percent of the plants killed)” value in test [2] (2 lb./A.) is 65%; in test [2] (4 lb./A.), 70%; in test [2] (8 lb./A.) it was 85%.

Take `COc1ccc(C(=O)c2cccc(C)c2)cc1C` [Example 2, 4-methoxy-3,3'-dimethylbenzophenone]: the “% Control, Monocots (average percent of the plants killed)” value in test [1] (2 lb./A.) is listed as 88%; in test [1] (4 lb./A.), 93%; in test [1] (8 lb./A.), 100%. Also, the “% Control, Dicots (average percent of the plants killed)” value in test [2] (2 lb./A.) is recorded as 60%; in test [2] (4 lb./A.), 55%; in test [2] (8 lb./A.), 65%.

Values taken from patent publication US3954875A, “Benzophenone herbicides” (Rohm and Haas Company, priority 1973, dated 1976).
